{
  "source": "patent US6756480B2",
  "about": "“Modulators of receptors for parathyroid hormone and parathyroid hormone-related protein” (Amgen Inc., priority 2000, dated 2004)",
  "type_in_all_cases": "in vivo",
  "key": {"OVX cynomolgus monkeys": {"tested_on": "OVX cynomolgus monkeys", "assay": "Single subcutaneous injection into OVX cynomolgus monkeys, serum total calcium", "description": "Monkeys were injected with PTH-(1-34)-Fc at doses of 1-30 μg/kg (n=1/group) or 100-1000 μg/kg (n=2/group). Serum was analyzed for total calcium. The dotted line indicates the threshold for hypercalcemia, based on an elevation of calcium greater than three standard deviations above the normal mean, on two or more consecutive timepoints.\nThe optimal dosing of primates may be less frequent compared to rats or mice. Weekly (or less frequent) dosing may be optimal in primates, based on the observation that the hypercalcemic response of OVX cynomolgus monkeys to a single subcutaneous injection of PTH-(1-34)-Fc (10-34 nmol/kg) persisted for about 168 hours (FIG. 11)."}, "male BDF1 mice": {"tested_on": "male BDF1 mice", "assay": "Monotherapy in adult mice: twice-weekly PTH-(1-34)-Fc versus daily PTH-(1-34), tibial BMD by pQCT", "description": "Daily PTH [PTH-(1-34)] was given at 80 μg/kg/day (20 nmol/kg/day).\nBriefly, male BDF1 mice (4 months of age) were treated twice per week by subcutaneous injection with various doses of PTH-(1-34)-Fc or with vehicle (PBS). Other mice were treated daily with SC injections of PTH-(1-34) at a dose of 80 μg/kg/day (20 nmol/kg/day), a treatment regimen which is optimal for increasing bone mass in rodents (M. Gunness-Hey and J. M. Hock, Metab. Bone Dis. & Rel. Res. 5:177-181, 1984). After 3 weeks, mice were sacrificed and tibiae were analyzed for bone mineral density (BMD) via pQCT (FIG. 10)."}, "rats": {"tested_on": "rats", "assay": "Hypercalcemic response to a single SC injection in rats", "details": "single SC injection 340 nmol/kg", "description": "(See FIG. 10.) In an aged OVX rat model of osteoporosis, twice weekly dosing was able to reverse more than 50% of the bone loss induced by one year of estrogen ablation. The effect seen in the aged rat model was even greater when combined with a bisphosphonate (APD). In rats, a single SC injection of PTH-(1-34)-Fc (340 nmol/kg) caused a hypercalcemic response which persisted for 72 hours (FIG. 8). This duration is concordant with the rate of clearance of PTH-(1-34)-Fc from the serum, and is consistent with an optimal twice-weekly dosing regimen in rats."}, "[1]": {"details": "3 weeks, PTH-(1-34) daily 80 μg/kg/day, PTH-(1-34)-Fc twice weekly, various doses"}, "[2]": {"details": "two highest doses, 50 and 150 nmol/kg twice weekly"}},
  "data": [
    {"substance": "PTH-(1-34)-Fc: human PTH-(1-34), SVSEIQLMHNLGKHLNSMERVEWLRKKLQDVHNF, linked at its C-terminus to an Fc domain", "values": [
      {"measurement": "time within which a single subcutaneous dose is cleared", "setting": "OVX cynomolgus monkeys; primates, inferred from calcemic response", "result": "≤ 1", "unit": "week"},
      {"measurement": "persistence of hypercalcemic response", "setting": "OVX cynomolgus monkeys; single subcutaneous injection 10-34 nmol/kg", "result": "about 168 hours"},
      {"measurement": "cancellous BMD compared to vehicle", "setting": "male BDF1 mice; [1]", "result": "dose-dependent increases"},
      {"measurement": "total tibial BMD compared to vehicle", "setting": "male BDF1 mice; [1]", "result": "dose-dependent increases"},
      {"measurement": "cortical BMD in the tibia", "setting": "male BDF1 mice; 3 weeks, PTH-(1-34) daily, PTH-(1-34)-Fc twice weekly, various doses", "result": "dose-dependent increase"},
      {"measurement": "bone density and bone volume compared to daily PTH-(1-34)", "setting": "male BDF1 mice; adult mice, twice weekly dosing", "result": "greater increases in bone density and bone volume"},
      {"measurement": "cortical BMD versus vehicle or daily PTH-(1-34)", "setting": "male BDF1 mice; highest dose twice weekly, p<0.05", "result": "significantly greater"},
      {"measurement": "cancellous BMD versus vehicle or daily PTH-(1-34)", "setting": "male BDF1 mice; [2]", "result": "significantly greater"},
      {"measurement": "total BMD versus vehicle or daily PTH-(1-34)", "setting": "male BDF1 mice; [2]", "result": "significantly greater"},
      {"measurement": "persistence of hypercalcemic response", "setting": "rats", "result": 72, "unit": "h"}
    ]}
  ]
}
